Measurements reported in PMC12313019, “Fibrotic lung ECM upregulates SDC4/integrin-αvβ1 interaction and the interfering peptide SDC4_87-131 and its derivative peptides alleviate pulmonary fibrosis” (Regenerative Biomaterials, 2025).

Columns and labels:
[1] = test system: BLM-induced PF, C57BL/6J mice; test: BLM-induced PF in mice: HE, Masson, hydroxyproline; assay type: in vivo, mouse
Description: C57BL/6J mice (male, 8-to 9-week old, 18–22 g, SPF grade) were purchased from Shanghai Slake Laboratory Animal Co., Ltd. [SCXK (Hu) 2022-0004, Shanghai, China]. […] The mice were housed in an SPF environment with 22–25°C, 46–65% humidity and 12 h/12 h light-dark alternation, with free access to water and food. This animal experiment was approved by the Experimental Animal Welfare Ethics Committee of Fujian Medical University (No. FJMU IACUC 2021-0465), and was carried out in accordance with the National Research Council's Guide for the Care and Use of Laboratory Animals.
After the mice were anesthetized (1% sodium pentobarbital 50 mg/kg was injected intraperitoneally), 150 μL of bleomycin (BLM, 5 mg/mL, BIO-000001) was inhaled into the lungs of the mice by tracheal inhalation instillation. One day later, the mice were randomly divided into model and drug treatment groups, and the mice in the control group were only subjected to saline inhalation.
Based on the dosage of SDC2 fragment peptide and our experimental results (Supplementary Figure S10A and B), the dosage schedule of SDC4_87-131 was set as follows: starting on the third day after BLM inhalation, 1 mg/kg, administered via trachea infusion once every three days. And Anti-SDC4(93-121) 8 mg/kg was administered on the third and tenth days (reference dosage).
Lung tissue samples were paraffin-embedded, then sliced and dewaxed, and HE and Masson staining were performed respectively. After dehydration and sealing, images were collected and analyzed using a microscope.
100 mg of lung tissue was accurately weighed and processed according to the instructions of the hydroxyproline assay kit (Nanjing Jiancheng, Nanjing, China), and the absorbance was measured at a wavelength of 550 nm. The data were expressed as micrograms (µg) of hydroxyproline per mg of dry lung tissue.

NIH3T3 cells = test: RT-PCR of fibroblast activation markers, TGF-β1 and inflammatory factors in dECM-stimulated fibroblast; assay type: cell-based, mouse
Description: Decellularized lung ECM (dECM) was prepared as described in previous study. 2 × 10^5 cells/mL NIH3T3 cells (mouse […], purchased from the Stem Cell Bank of the Chinese Academy of Sciences, Shanghai, China) were seeded on the dECM slices attached to the bottom of the culture dish and cultured in DMEM medium containing 0.5% fetal bovine serum (Gibco, Waltham, MA, USA) at 37°C and 5% CO2.
Total RNA was extracted from cells or lung tissue (10 mg) using Trizol reagent, and mRNA was reverse transcribed into cDNA using HiScript® II QRT SuperMix for qPCR (Vazyme, #R223-01). Real-time fluorescence quantitative PCR (RT-PCR) was performed using Hieff® qPCR SYB Green Master Mix (YEASEN, #11201ES08) to obtain the Ct value. The 2^−ΔΔCt method was used to obtain the relative expression level of mRNA in each group. Primers (Table 1) were purchased from Sangon Biotech.

Ac-NHIPERAGSGSQVPTEPKKLEENEVIPKRISPVEESEDVSNKVSM-NH2 [SDC4_87-131]
alveolar structural disorders and collagen deposition ([1]; SDC4_87-131 1 mg/kg ITD q3d, C8 10 mg/kg IP qd, Anti-SDC4(93-121) 8 mg/kg ITD day 3 and 10, to day 21): could alleviate alveolar structural disorders and collagen deposition
difference between treatments (HE, Masson, hydroxyproline) ([1]; SDC4_87-131, Anti-SDC4(93-121) and C8 compared): no significant difference
dECM-PF-induced fibroblast activation (NIH3T3 cells; 100 nM, 48 h): significantly inhibit dECM-PF-induced fibroblast activation
dECM-PF-induced fibroblast activation and TGF-β1 synthesis (NIH3T3 cells; SDC4_87-131 100 nM vs Anti-SDC4(93-121) 100 ng/mL): inhibited dECM-PF-induced fibroblast activation and TGF-β1 synthesis
